Results on one molecule are retold here after PMC12903969, “Discovery of a Novel and Potent Kir4.1 Inhibitor as a Safe and Rapid‐Onset Antidepressant Agent in Mice” (Advanced Science, 2025).

Values joined by “and” are separate entries in the source; they are usually repeats but may differ in a detail not shown here. Equal entries are not always repeated. Where two headings read alike, the source gives them in different places.

In general, inhibition refers to the share of the control response that was lost under treatment. Read a low inhibition as a weak effect.

The target in series [1] is T1, Kir2.2 (Homo sapiens, UniProt Q14500).
T1 construct: host or cells: CHO-K1
T1 sequence (Q14500 whole entry): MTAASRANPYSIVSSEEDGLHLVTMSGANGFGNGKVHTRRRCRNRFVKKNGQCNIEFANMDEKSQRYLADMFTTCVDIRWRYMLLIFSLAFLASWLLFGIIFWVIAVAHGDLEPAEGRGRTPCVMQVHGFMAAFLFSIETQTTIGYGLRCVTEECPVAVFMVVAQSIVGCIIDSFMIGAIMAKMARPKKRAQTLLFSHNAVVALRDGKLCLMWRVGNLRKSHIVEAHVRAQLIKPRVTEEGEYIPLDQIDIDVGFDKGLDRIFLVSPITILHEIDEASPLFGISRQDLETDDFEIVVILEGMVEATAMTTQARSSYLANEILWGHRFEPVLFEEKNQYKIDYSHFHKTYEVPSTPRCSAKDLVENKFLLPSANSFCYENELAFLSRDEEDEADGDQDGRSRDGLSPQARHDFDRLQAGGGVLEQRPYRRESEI
The series can be described thus: Whole-cell patch clamp, Kir2.2. The note with it: mean ± SEM. The series is classed as cell-based. The method, then:
Plasmids encoding WT human potassium channels Kir1.1, Kir2.1, Kir2.2, Kir4.1, and Kir4.2 were obtained from the Beijing Genomics Institute. All point mutations were constructed using the QuickChange II Site‐Directed Mutagenesis Kit (Stratagene) and subsequently verified by sequencing.
CHO‐K1 cells were maintained in DMEM/F12 growth medium containing 10% fetal bovine serum. Plasmids encoding the target genes (3600 ng) and enhanced green fluorescent protein (400 ng) were cotransfected into cells using Lipofectamine 2000 (Invitrogen) in accordance with the manufacturer's instructions. Cells were seeded onto poly‐d‐lysine (PDL)‐coated glass coverslips 1 h prior to electrophysiological recordings. […]
Whole‐cell patch‐clamp recordings were obtained either in transiently transfected CHO‐K1 cells or in primary cultured astrocytes at room temperature using standard patch‐clamp techniques with an Axopatch‐700B amplifier (Axon Instruments). […] Macroscopic currents generated by expressed potassium channels were recorded under the voltage‐clamp conditions with an internal pipette solution composed of (in mM): 140 KCl, 5 NaCl, 1 CaCl2, 1 MgCl2, 10 HEPES, and 10 EGTA, pH 7.2 adjusted with KOH. […] Astrocytic resting membrane potentials were recorded under current‐clamp conditions (I = 0 pA) using standard internal and external solutions, determined immediately after achieving whole‐cell mode.
(The patch-clamp technique gives a direct electrical read-out from membranes.)

A short description of series [2]: Brain penetration (plasma and brain concentration, LC-MS/MS). The series is classed as in vivo, mice. Particulars: for Kp at 1 h / concentration at 1 h: male, C57BL/6J, mouse; for Kp at 1 h: brain and plasma, read-out: Brain/Plasma concentration ratio; for concentration at 1 h: 1 h post-dosing. The method, then:
Male C57BL/6J mice were used for both blood–brain penetration and plasma/tissue distribution studies, with mice assigned to three groups: 10 mg kg^−1 JX3212 (n = 3), 20 mg kg^−1 JX3212 (n = 3) for blood–brain penetration, and 10 mg kg^−1 JX3212 for plasma/tissue distribution (all administered via intraperitoneal injection), where mice in the blood–brain penetration groups were fasted for 12 h prior to drug administration and 2 h post‐administration; 1 h after drug administration, 0.2 mL of blood was collected from the retro‐orbital/orbital venous plexus into 1.5 mL heparinized tubes, centrifuged at 11 000 rpm for 5 min to obtain plasma (stored at −80 °C for blood–brain penetration groups), while whole brains were excised for blood–brain penetration groups and whole brains plus kidneys (rinsed with physiological saline, blotted dry on filter paper, and accurately weighed) for the plasma/tissue distribution group; plasma samples (20 µL) were mixed with 20 µL internal standard solution and 300 µL acetonitrile for protein precipitation, vortexed for 15 min, centrifuged at 3700 rpm for 15 min at 4 °C, and the supernatant was collected, whereas brain and kidney samples were homogenized in acetonitrile at 10× tissue weight (8000 rpm, 3 × 30 s), sonicated for 5 min, and processed identically to plasma samples; the concentrations of JX3212 in plasma and tissues were quantified by liquid chromatography–tandem mass spectrometry (LC−MS/MS), with lower limits of quantification set to 50 ng mL^−1 for plasma and 50 ng g^−1 for brain tissue.

Series [3] relates to C57BL/6J mice after CSDS. Description: CSDS model, social interaction test. The series is classed as in vivo. The method, then: The 10‐day CSDS paradigm was conducted as previously described.^[ [24] ^] CD‐1 aggressive mice were singly housed in defeat cages on one side of a perforated plexiglass partition 24 h before the defeat session. Experimental C57BL/6J mice were placed daily on the resident cage side of a novel CD‐1 aggressor that rapidly initiated a physical attack on the intruder. After 10‐min of social defeat, the intruder mice were housed on the opposite side of the partition within a shared home cage, experiencing further sensory contact for the subsequent 24 h. In contrast, control mice were maintained in their home cages and allowed to explore the empty defeat cages for 10 min each day.
C57BL/6J mice, comprising both control and experimental groups, were placed individually into the social open field with a plexiglass enclosure positioned along the side wall. Movement parameters, including the time spent in the interaction zone, corner zones, and locomotion, were monitored and analyzed over the two test sessions using the AnyMaze Tracking System. In the first session, the mice freely explored the arena for 2.5 min. Then, a new aggressive CD‐1 mouse was introduced into the plexiglass enclosure, and the experimental mice returned to the arena for the second 2.5‐min session. The social interaction ratio was determined as the ratio between the time the experimental mice spent in the interaction zone when the target CD‐1 was present and the time spent in the zone when it was absent.

The mark [4] stands for this setting: mice, 10 mg/kg i.p., 1 h, 10 mg/kg.
Setting [5] is: mice, 20 mg/kg i.p., 1 h, 20 mg/kg.

In series [1], `c1ccc2c(c1)oc1ccc(Nc3ccnc(NCCCN4CCOCC4)n3)cc12` [JX3212, N^4-(dibenzo[b,d]furan-2-yl)-N^2-(3-morpholinopropyl)pyrimidine-2,4-diamine] returned an inhibition at 3 µM of 14.3 ± 8.36%. In addition, the Kp at 1 h in series [2] (ip, 10 mg/kg, mice, 10 mg/kg i.p., 1 h) is greater than 10; in series [2] (ip, 20 mg/kg, mice, 20 mg/kg i.p., 1 h), 12.9 ± 1. The concentration at 1 h in series [2] (brain, intraperitoneal, 10 mg/kg, converted from 2533.3 ng/mL, read-out: brain concentration expressed as molar) is roughly 6.3 µM; in series [2] (brain, ip, 10 mg/kg, mice, 10 mg/kg i.p., read-out: Brain Calculated Concentration), 2530 ± 745 ng/mL; in series [2] (brain, ip, 20 mg/kg, mice, 20 mg/kg i.p., read-out: Brain Calculated Concentration) it was 6690 ± 816 ng/mL; in series [2] (plasma, ip, 10 mg/kg, mice, 10 mg/kg i.p., mean ± SD, read-out: Plasma Calculated Concentration), 234 ± 14.4 ng/mL; in series [2] (plasma, ip, 20 mg/kg, mice, 20 mg/kg i.p., read-out: Plasma Calculated Concentration), 521 ± 63.3 ng/mL. The Brain/Plasma concentration ratio in series [2] (setting [4]) is recorded as 10.72; in series [2] (setting [5]), greater than 10. For the same molecule, in series [2] (setting [4]), the “logBB (blood–brain partitioning coefficient)” value is 1.02 ± 0.10 and > 1 and 1.02. Moreover, in series [2] (setting [5]), the logBB is 1.11 ± 0.03 and > 1. In addition, the “SIT--Time in interaction zone (s), single mice” value in series [3] (10 mg/kg, session not given) is 83.5 s and 59.3 s and 49.8 s and 72.2 s and 60.4 s and 74.9 s and 82.2 s and 43.8 s. The “CSDS: time spent in corners in SIT (in words)” value in series [3] (single i.p. injection 10 mg kg−1) is “significant decrease in the time spent in corners”.
